For orientation: IC50 means the concentration needed to halve the response being measured.

These results are taken from patent US6410792B1, “Amide derivatives and methods for using the same as selective neuropeptide Y receptor antagonists” (Bayer Corporation, priority 1997, dated 2002).

Structures can show the parent of a compound that is named as a salt. Where two headings read alike, the source gives them in different places. A value given as a limit tells only on which side of the number the result lay.

One test deals with T1, Human NPY5 receptor (Homo sapiens, UniProt Q15761).
T1 sequence (Q15761 1-445): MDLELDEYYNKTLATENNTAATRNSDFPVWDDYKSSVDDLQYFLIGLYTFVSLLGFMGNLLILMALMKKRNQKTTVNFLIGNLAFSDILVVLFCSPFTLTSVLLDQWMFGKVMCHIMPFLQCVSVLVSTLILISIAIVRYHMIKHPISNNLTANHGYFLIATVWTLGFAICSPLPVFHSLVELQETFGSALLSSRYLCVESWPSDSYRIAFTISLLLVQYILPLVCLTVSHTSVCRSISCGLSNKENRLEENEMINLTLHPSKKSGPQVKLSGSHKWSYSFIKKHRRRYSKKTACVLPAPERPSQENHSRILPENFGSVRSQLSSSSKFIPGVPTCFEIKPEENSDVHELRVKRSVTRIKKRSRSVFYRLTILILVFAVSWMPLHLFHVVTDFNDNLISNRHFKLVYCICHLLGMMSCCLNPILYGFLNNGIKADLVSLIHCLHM
The test is described as follows: Human NPY5 receptor binding assay ([125I]PYY, membrane protein). Summed up: (§1)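 Bound [125I]PYY is measured by gamma counting or liquid scintillation after vacuum filtration and ice-cold washes. Before that, membranes, 75-100 pM tracer and compound are incubated 2 hours at room temperature, with nonspecific binding defined by 1 μM PYY.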

The target in another test is T2, Y2 receptor (Homo sapiens, UniProt P49146).
T2 sequence (P49146 1-381): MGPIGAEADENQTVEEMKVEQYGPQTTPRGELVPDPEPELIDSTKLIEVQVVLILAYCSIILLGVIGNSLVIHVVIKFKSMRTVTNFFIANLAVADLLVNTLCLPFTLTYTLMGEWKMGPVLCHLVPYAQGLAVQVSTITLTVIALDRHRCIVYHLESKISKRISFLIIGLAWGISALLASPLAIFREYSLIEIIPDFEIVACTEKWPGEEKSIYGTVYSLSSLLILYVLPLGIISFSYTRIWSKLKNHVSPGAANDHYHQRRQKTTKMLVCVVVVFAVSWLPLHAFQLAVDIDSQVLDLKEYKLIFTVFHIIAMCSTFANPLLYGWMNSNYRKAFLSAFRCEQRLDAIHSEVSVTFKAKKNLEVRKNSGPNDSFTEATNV
The test is described as follows: Y2 receptor binding assay ([125I]PYY, membrane protein). The conditions noted are these: [125I]PYY, membrane protein; read-out: hNPY2 IC50. Summed up: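 Filtration binding with membrane protein and drug dilution, 2 h at room temperature with mixing, radioactivity counted by gamma or scintillation. Y2: 25 pM [125I]PYY in Krebs-Ringer bicarbonate pH 7.4 with 0.01% BSA, nonspecific by 1 μM NPY. Y4/PP1: 50 pM [125I]hPP in HEPES-buffered saline pH 7.4 with protease inhibitors and 0.3% BSA, nonspecific by 1 μM hPP.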

Another test has as its target T3, Rat NPY5 receptor (Rattus norvegicus, UniProt Q63634).
T3 sequence (Q63634 1-445): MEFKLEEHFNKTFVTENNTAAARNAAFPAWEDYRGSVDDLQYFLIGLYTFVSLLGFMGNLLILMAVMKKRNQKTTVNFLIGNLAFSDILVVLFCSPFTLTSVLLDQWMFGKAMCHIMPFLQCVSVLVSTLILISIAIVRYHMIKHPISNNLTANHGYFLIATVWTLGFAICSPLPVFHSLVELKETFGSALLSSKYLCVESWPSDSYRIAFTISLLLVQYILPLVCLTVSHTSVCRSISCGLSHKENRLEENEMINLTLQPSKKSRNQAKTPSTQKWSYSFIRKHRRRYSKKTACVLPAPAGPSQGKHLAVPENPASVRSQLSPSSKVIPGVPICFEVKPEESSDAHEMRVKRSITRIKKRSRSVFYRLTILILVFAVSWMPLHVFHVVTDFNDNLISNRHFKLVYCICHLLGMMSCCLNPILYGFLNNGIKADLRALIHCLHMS
The experiment in a line: Rat NPY5 receptor binding assay ([125I]PYY, membrane protein). Summed up:
as §1

The target in a further test is T4, Human NPY1 receptor (Homo sapiens, UniProt P25929).
T4 construct: host or cells: SK-N-MC cells
T4 sequence (P25929 1-384): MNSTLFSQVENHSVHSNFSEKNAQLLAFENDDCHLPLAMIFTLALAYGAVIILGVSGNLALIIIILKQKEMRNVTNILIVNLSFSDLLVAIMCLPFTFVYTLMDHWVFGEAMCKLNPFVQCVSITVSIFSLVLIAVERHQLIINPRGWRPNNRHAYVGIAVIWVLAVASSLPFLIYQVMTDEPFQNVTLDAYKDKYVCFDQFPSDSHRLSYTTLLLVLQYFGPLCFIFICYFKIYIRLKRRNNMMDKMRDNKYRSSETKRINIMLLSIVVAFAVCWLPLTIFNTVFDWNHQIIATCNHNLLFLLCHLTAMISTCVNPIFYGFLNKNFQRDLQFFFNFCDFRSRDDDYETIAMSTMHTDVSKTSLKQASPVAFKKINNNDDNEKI
The experiment in a line: Human NPY1 receptor binding assay ([125I]PYY, SK-N-MC cells). The conditions noted are these: [125I]PYY, SK-N-MC cells; read-out: hNPYI IC50. As for the experimental part:
A. Human NPY1 Receptor Binding Assay
This is a modification of Gordon et al., (J. Neurochem. 55:506-513, 1990). SK-N-MC cell (ATCC, Rockville, Md.) were plated in 24-well plates. Once confluent, cells were rinsed with Dulbecco's phosphate buffered saline (DPBS). Cells were then preincubated in binding buffer containing serum-free DMEM, 25 mM HEPES (pH 7.3), 0.5% bovine serum albumin (BSA), 0.1% bacitracin and 0.1 mM phenylmethylsulfonylfluoride for 30 minutes at room temperature. Drug dilution and [125I]PYY (˜50 pM: NEN-DuPont) were added to the wells, and the cells were incubated for an additional 3 hours at room temperature, followed by rinsing with ice-cold DPBS. Nonspecific binding was defined with 1 μM NPY. After lysing the cells with 1% Triton X-100, the amount of radioactivity in the lysates was quantitated with a gamma counter.

Another test has as its target human Y4/PP1 receptor (Homo sapiens, UniProt P50391). The test is described as follows: Human Y4/PP1 receptor binding assay ([125I]human PP, membrane protein). The conditions noted are these: [125I]human PP, membrane protein; read-out: hNPY4 IC50. On the procedure: B. Human Y2 and Y4/PP1 Receptor Binding Assays
Binding assays were performed on GF/C Millipore 96-well plates pretreated with 0.02% polyethylenimine. The binding buffer for rat Y2 binding is Krebs-Ringer bicarbonate (pH 7.4) containing 0.01% BSA and 0.005% bacitracin. Samples consist of membrane protein, 25 pM [1251]PYY and drug dilution. Nonspecific binding is defined by 1 μM NPY. The binding buffer for human Y4/PP1 binding consists of 137 mM NaCl, 5.4 mM KCl, 0.44 mM KH2PO4, 1.26 mM CaCl2, 0.81 mM MgSO4, 20 mM HEPES, 1 mM dithiothreitol, 0.1% bacitracin, 100 mg/l streptomycin sulfate, 1 mg/l aprotinin, 10 mg/ml soybean trypsin inhibitor and 0.3% BSA, pH 7.4. Samples consist of membrane protein, 50 pM human [1251]human PP (hPP: NEN DuPont, Boston, Mass.) and drug dilution. 1 μM hPP is used to define nonspecific binding.
After a 2 hour incubation at room temperature with constant mixing, the samples are aspirated on a vacuum manifold, and rinsed with ice-cold binding buffer. The amount of radioactivity in each well is quantitated with either gamma counting or liquid scintillation.

The mark [1] stands for this setting: [125I]PYY, read-out: hNPY5 IC50.
[2] abbreviates: [125I]PYY, read-out: rNPY5 IC50.

human Y4/PP1 receptor, sequence (P50391 whole entry): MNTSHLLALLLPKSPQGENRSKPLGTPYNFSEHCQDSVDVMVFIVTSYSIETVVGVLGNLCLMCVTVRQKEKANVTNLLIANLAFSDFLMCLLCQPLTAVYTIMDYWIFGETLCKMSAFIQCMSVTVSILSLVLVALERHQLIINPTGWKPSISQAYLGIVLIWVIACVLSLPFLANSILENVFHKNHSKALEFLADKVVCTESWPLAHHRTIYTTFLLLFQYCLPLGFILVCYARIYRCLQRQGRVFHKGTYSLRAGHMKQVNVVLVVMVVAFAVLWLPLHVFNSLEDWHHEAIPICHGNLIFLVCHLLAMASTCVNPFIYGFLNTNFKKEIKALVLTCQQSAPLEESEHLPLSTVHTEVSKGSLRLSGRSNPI

As to `Cl.O=C(CN1CCC(n2c(=O)[nH]c3ccccc32)CC1)Nc1ccc(C(=O)C(=O)c2ccccc2)cc1` [Compound 265, 2-[4-(2-Oxo-2,3-dihydro-benzoimidazol-1-yl]-N-[4-(oxo-phenyl-acetyl)-phenyl]-acetamide; hydrochloride], the IC50 at Human NPY5 receptor (setting [1]) is 5 nM; at Y2 receptor it was greater than 5000 nM; at Rat NPY5 receptor (setting [2]), 5 nM; on Human NPY1 receptor it was greater than 5000 nM; at human Y4/PP1 receptor, greater than 5000 nM.

As for `O=C(CN1CCC(n2c(=O)[nH]c3ccccc32)CC1)Nc1ccc(-c2cnco2)cc1` [Compound 267, N-(4-Oxazol-5-yl-phenyl)-2-[4-(2-oxo-2,3-dihydro-benzoimidazol-1-yl)-piperidin-1-yl]-acetamide; hydrate], the IC50 at Human NPY5 receptor (setting [1]) is 150 nM; at Y2 receptor, greater than 5000 nM; on Rat NPY5 receptor (setting [2]) it was 150 nM; on Human NPY1 receptor, greater than 5000 nM; on human Y4/PP1 receptor, greater than 5000 nM.

For `O=C(CNCCCn1c(=O)[nH]c2ccccc21)Nc1ccc(-c2ccccc2)cc1` [Compound 277, N-Biphenyl-4-yl-2-[3-(2-oxo-2,3-dihydro-benzoimidazol-1-yl)-propylamino]-acetamide], the IC50 at Human NPY5 receptor (setting [1]) is 890 nM; at Y2 receptor, greater than 5000 nM; on Rat NPY5 receptor (setting [2]), 1600 nM; on Human NPY1 receptor, greater than 5000 nM; at human Y4/PP1 receptor it was greater than 5000 nM.

Consider `O=C(Nc1ccc(C2CCCCC2)cc1)C(c1ccccc1)N1CCC(n2c(=O)[nH]c3ccccc32)CC1` (stereo not shown) [Compound 313, N-(4-Cyclohexyl-phenyl)-2-[4-(2-oxo-2,3-dihydro-benzoimidazol-1-yl)-piperidin-1-yl]-2-phenyl-acetamide], for which the IC50 on Human NPY5 receptor (hNPY5 IC50, [125I]PYY) is 35 nM; at Y2 receptor, greater than 5000 nM; on Rat NPY5 receptor (rNPY5 IC50, [125I]PYY), 20 nM; at Human NPY1 receptor, greater than 5000 nM; at human Y4/PP1 receptor, greater than 5000 nM.

As to `O=C(CN1CCC(n2c(=O)[nH]c3ccccc32)CC1)Nc1ccccc1-c1ccccc1` [Compound 324, N-Biphenyl-2-yl-2-[4-(2-oxo-2,3-dihydro-benzoimidazol-1-yl)-piperidin-1-yl]-acetamide; hydrochloride], the IC50 was 390 nM at Human NPY5 receptor (setting [1]); greater than 5000 nM at Y2 receptor; 690 nM on Rat NPY5 receptor (setting [2]); greater than 5000 nM at Human NPY1 receptor; greater than 5000 nM at human Y4/PP1 receptor.

As to `O=C(CN1CCC(n2c(=O)[nH]c3ccccc32)CC1)Nc1ccc2c(c1)Cc1ccccc1-2` [Compound 325, N-(9H-Fluoren-2-yl)-2-[4-(2-oxo-2,3-dihydro-benzoimidazol-1-yl)-piperidin-1-yl]-acetamide], the IC50 at Human NPY5 receptor (setting [1]) was 6 nM; on Y2 receptor, greater than 5000 nM; at Rat NPY5 receptor (setting [2]), 4 nM; at Human NPY1 receptor, greater than 5000 nM; on human Y4/PP1 receptor, greater than 5000 nM.

For `CC(C(=O)Nc1ccc(-c2ccccc2)cc1)N1CCC(n2c(=O)[nH]c3ccccc32)CC1` (stereo not shown) [Compound 329, N-Biphenyl-4-yl-2-[4-(2-oxo-2,3-dihydro-benzoimidazol-1-yl)-piperidin-1-yl]-propionamide; hydrochloride], the IC50 was 20 nM at Human NPY5 receptor (setting [1]); greater than 5000 nM at Y2 receptor; 16 nM at Rat NPY5 receptor (setting [2]); greater than 5000 nM at Human NPY1 receptor; greater than 5000 nM on human Y4/PP1 receptor.

Turning to `Nc1cc(S(=O)(=O)c2ccccc2)ccc1NC(=O)CN1CCC(n2c(=O)[nH]c3ccccc32)CC1` [Compound 335, N-(2-Amino-4-benzenesulfonyl-phenyl)-2-[4-(2-oxo-2,3-dihydro-benzoimidazol-1-yl)-piperidin-1-yl]-acetamide, reference compound], the IC50 was 110 nM on Human NPY5 receptor (setting [1]); greater than 5000 nM at Y2 receptor; 98 nM on Rat NPY5 receptor (setting [2]); greater than 5000 nM on Human NPY1 receptor; greater than 5000 nM on human Y4/PP1 receptor.

For the compound `CCN(CC)c1ccc(NC(=O)CN2CCC(n3c(=O)[nH]c4ccccc43)CC2)cc1` [Compound 336, N-(4-Diethylamino-phenyl)-2-[4-(2-oxo-2,3-dihydro-benzoimidazol-1-yl)-piperidin-1-yl]-acetamide, reference compound], the IC50 at Human NPY5 receptor (setting [1]) is 220 nM; at Y2 receptor it was greater than 5000 nM; on Rat NPY5 receptor (setting [2]), 205 nM; at Human NPY1 receptor, greater than 5000 nM; on human Y4/PP1 receptor, greater than 5000 nM.

In the case of `CN(C)c1cccc(NC(=O)CN2CCC(n3c(=O)[nH]c4ccccc43)CC2)c1` [Compound 338, reference compound], the IC50 at Human NPY5 receptor (setting [1]) was 910 nM; on Y2 receptor it was greater than 5000 nM; on Rat NPY5 receptor (setting [2]), 1200 nM; at Human NPY1 receptor, greater than 5000 nM; at human Y4/PP1 receptor, greater than 5000 nM.

On to `CCCCOc1ccc2ccc(NC(=O)CN3CCC(n4c(=O)[nH]c5ccccc54)CC3)cc2c1` [Compound 343, N-(7-Butoxy-naphthalen-2-yl)-2-[4-(2-oxo-2,3-dihydro-benzoimidazol-1-yl)-piperidin-1-yl]-acetamide, reference compound], for which the IC50 is 110 nM at Human NPY5 receptor (setting [1]); greater than 5000 nM at Y2 receptor; 45 nM at Rat NPY5 receptor (setting [2]); greater than 5000 nM at Human NPY1 receptor; greater than 5000 nM at human Y4/PP1 receptor.
